# From US20260137815A1, “DIAGNOSTIC AND TREATMENT METHODS FOR ONYCHOMYCOSIS” (ToeFX Inc., priority 2022, published 2026)
# Test system: T. rubrum strain F4520
# Test: UV-Visual absorption spectra of MB incubated with T. rubrum
# Procedure: Referring to FIG. 5C, shown therein are UV-Visual absorption spectra of MB when incubated with T. rubrum. T. rubrum strain F4520 cubes were retrieved from −80° freezer, thawed at room temperature, and transferred to an Sabourand dextrose agar (SDA) plate, and distributed evenly on the SDA plate. The SDA plate was sealed by parafilm and moved into a 30° C. incubator until vigorous fungal growth was observed. Next, fungal mycelia were prepared, by transferring a 6.25 cm^2 culture from the SDA plate to a sterile blender cup and adding 200 mL sterile water. After 30 seconds of blending, varying amounts of blendate was pipetted into wells of a 96 well plate. […] The MB absorbance spectra was then measured by a photospectrometer.
# The more dilute the fungus, the higher the MB absorbance value (i.e., normalized absorbance), indicating higher amounts of free MB in the solution.
# A similar protocol was followed as described above for FIG. 5C, except that the concentration of T. rubrum in the solution was kept constant. MB absorbance was measured immediately (curve 502), 4 days (curve 504), and 7 days (curve 506) after mixing. Immediately after mixing, the MB absorbance peak is centered at ˜660 nm, corresponding to the absorption peak of MB alone in solution (see FIG. 5A). Over time, the intensity of the absorbance peak is lowered as MB is adsorbed to fungal cells, consistent with the curves in FIG. 5C.
compound,measurement,setting,value
"CN(C)c1ccc2nc3ccc(=[N+](C)C)cc-3sc2c1 [MB, Methylene Blue]",MB absorbance (normalized) with increasing fungal concentration,"0.01% v/v solution of MB, varying concentrations of T. rubrum",lower MB absorbance is observed
same,shift of MB absorbance peak over time,"0.25% v/v solution of MB with T. rubrum culture, immediately, 4 days, 7 days after mixing",observable blue-shifting of the MB absorbance peak over time
